Experiment in all cases: NCI-60 cell line screen, 48 h
Assay [1] relates to OVCAR-4 ovarian.
For assay [2], the system named is SF-295 CNS.
In assay [3] the test system is SR leukemia.
Assay [4] concerns SF-268 CNS.
For assay [5], the system named is NCI-H460 lung.
Assay [6] deals with HCC-2998 colon.
For assay [7], the system named is A498 renal.
Assay [8] relates to MALME-3M melanoma.
In assay [9] the test system is PC-3 prostate.
Assay [10] has as its system DU-145 prostate.

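All cell lines were grown in 96-well plates and treated with compound for 48 hours. GI50 marks 50% less growth. The concentration for full growth arrest is given as TGI.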

Consider `ClCC#CCSc1ncnc2c1ncn2CC#CCCl`, for which the GI50 in assay [1] was 2.12 µM; in assay [2], 2.05 µM; in [3], 0.432 µM; in [4], 1.33 µM; in assay [5], 2.15 µM; in assay [6] it was 1.67 µM. The GI50 in assay [7] was 1.75 µM; in assay [8] it was 1.88 µM; in assay [9] it was 1.41 µM; in [10], 1.79 µM. Besides, the TGI in [1] was found to be 8.29 µM; in assay [2] it was 4.59 µM; in assay [3], 13.8 µM; in assay [4] it was 3.09 µM; in [5], 6.77 µM; in [6], 3.11 µM. The TGI in [7] came out at 4.75 µM; in assay [8], 6.42 µM; in assay [9], 3.24 µM; in assay [10] it was 4.49 µM.
Consider `CCOC(=O)c1ccccc1-c1c2ccc(=[N+](C)C)cc-2oc2cc(N(C)C)ccc12`, for which the GI50 in assay [1] was 0.167 µM; in assay [2] it was 0.278 µM; in assay [3], 0.298 µM; in [4], 0.332 µM; in assay [5], 0.23 µM; in [6] it was 0.35 µM. The GI50 was 0.013 µM in assay [7], 0.333 µM in [8], 0.0778 µM in assay [9] and 0.174 µM in [10]. For the same compound, the TGI is more than 41.5 µM in assay [1]; 1.62 µM in assay [2]; 27.4 µM in assay [3]; 27.5 µM in assay [4]; 4.42 µM in assay [5]; 13.9 µM in assay [6]. Further, the TGI in assay [7] came out at 1.11 µM; in assay [8], 7.62 µM; in assay [9], 12.8 µM; in [10] it was 24.1 µM.
On to `COc1ccc(-c2c(N)n[nH]c2-c2cc(OC)c(OC)c(OC)c2)cc1`, for which the GI50 in [1] is 1.62 µM; in assay [2], 0.0758 µM; in assay [3], 0.0308 µM; in assay [4] it was 0.676 µM; in assay [5], 0.0993 µM; in assay [6] it was 0.286 µM. Besides, the GI50 in [7] is 0.0549 µM; in assay [8], 22.5 µM; in assay [9], 0.11 µM; in assay [10], 0.272 µM. Also, the TGI in [1] is more than 100 µM; in [2] it was more than 100 µM; in assay [3], 29.1 µM; in assay [4], more than 48.4 µM; in assay [5], 17.2 µM; in assay [6], 19.8 µM. Besides, the TGI in [7] was 0.615 µM; in assay [8], more than 100 µM; in assay [9] it was more than 100 µM.
With `O=C(Nc1ccc(I)cc1F)c1cc(I)ccc1O`, the GI50 in [1] is 0.798 µM; in assay [2] it was 0.8 µM; in assay [3] it was 1.38 µM; in assay [4], 0.704 µM; in assay [5], 0.506 µM; in assay [6], 2.63 µM. Moreover, the GI50 in [7] was 0.324 µM; in assay [8], 0.32 µM; in assay [9], 1.14 µM; in assay [10] it was 0.873 µM. For the same compound, the TGI was more than 100 µM in [1]; 2.14 µM in [2]; more than 100 µM in assay [3]; more than 100 µM in assay [4]; 22.4 µM in [5]; 15.1 µM in assay [6]. In addition, the TGI in [7] is 1.24 µM; in assay [8], 1.52 µM; in [9], 9.76 µM; in [10] it was more than 100 µM.
Take `CN1CCN(CCOc2ccc(-c3cnc4c(-c5ccc(F)cc5)cnn4c3)cc2)CC1`: the GI50 is 1.43 µM in assay [1]; 1.73 µM in assay [2]; 2.07 µM in assay [3]; 2.03 µM in [4]; 1.54 µM in assay [5]; 1.77 µM in assay [6]. Besides, the GI50 in assay [7] was 1.64 µM; in assay [8], 1.62 µM; in assay [9], 1.7 µM; in assay [10], 1.64 µM. Besides, the TGI in assay [1] amounted to 3.61 µM; in assay [2], 3.23 µM; in [3], 10.9 µM; in assay [4], 5.31 µM; in assay [5] it was 3.06 µM; in assay [6], 3.45 µM. Besides, the TGI in [7] was 4.89 µM; in assay [8], 3.13 µM; in assay [9], 3.82 µM; in assay [10], 3.16 µM.
In the case of `COc1ccc(NC(=O)/C=C(C)/C=C/C=C(C)\C=C\C2=C(C)CCCC2(C)C)cc1`, the GI50 is 34.8 µM in assay [1]; 35.7 µM in [2]; 28.8 µM in assay [3]; more than 100 µM in assay [4]; 84 µM in [5]; more than 100 µM in [6]. In addition, the GI50 in assay [7] was more than 100 µM; in assay [8] it was 41.2 µM; in assay [9], 72.6 µM; in assay [10], more than 100 µM. Also, the TGI in [1] is more than 100 µM; in assay [2], more than 100 µM; in assay [3], 80.8 µM; in [4] it was more than 100 µM; in [5] it was more than 100 µM; in [6] it was more than 100 µM. For the same compound, the TGI in assay [7], in assay [8], in [9] and in assay [10] was more than 100 µM throughout.
In the case of `O=C1c2ccccc2-c2c1c1ccccc1c(=O)n2-c1ccccc1`, the TGI in assay [1] is 19.2 µM; in assay [2], 23.6 µM; in assay [3] it was more than 100 µM; in [4], 52.7 µM; in [5], 36.6 µM; in [6], more than 100 µM. The TGI in assay [7] was 60.7 µM; in [8], more than 100 µM; in [9] it was more than 100 µM; in [10] it was more than 100 µM.

The values above are taken from PubChem BioAssay (NCI).
